ChEMBL document CHEMBL1148552, “Pulvinones as bacterial cell wall biosynthesis inhibitors” (Bioorg Med Chem Lett, 2006)
In brackets after ≈: the same amount, converted by molar mass.

How the values were obtained:
[1] = target: UDP-N-acetylglucosamine 1-carboxyvinyltransferase (Escherichia coli K-12, UniProt P0A749); assay: Inhibitory activity against MurA in Escherichia coli
Enterococcus faecalis [2] = assay: Antibacterial activity against Enterococcus faecalis; type: functional; conditions: GC 4555
Streptococcus pneumoniae = assay: Antibacterial activity against penicillin resistant Streptococcus pneumoniae; type: functional; conditions: GC 1894
Enterococcus faecalis [3] = assay: Antibacterial activity against vancomycin resistant Enterococcus faecalis; type: functional; conditions: GC 2242
[4] = target: T1, UDP-N-acetylmuramoylalanine--D-glutamate ligase (Escherichia coli K-12, UniProt P14900); assay: Inhibitory activity against MurD in Escherichia coli
T1 sequence (P14900 whole entry): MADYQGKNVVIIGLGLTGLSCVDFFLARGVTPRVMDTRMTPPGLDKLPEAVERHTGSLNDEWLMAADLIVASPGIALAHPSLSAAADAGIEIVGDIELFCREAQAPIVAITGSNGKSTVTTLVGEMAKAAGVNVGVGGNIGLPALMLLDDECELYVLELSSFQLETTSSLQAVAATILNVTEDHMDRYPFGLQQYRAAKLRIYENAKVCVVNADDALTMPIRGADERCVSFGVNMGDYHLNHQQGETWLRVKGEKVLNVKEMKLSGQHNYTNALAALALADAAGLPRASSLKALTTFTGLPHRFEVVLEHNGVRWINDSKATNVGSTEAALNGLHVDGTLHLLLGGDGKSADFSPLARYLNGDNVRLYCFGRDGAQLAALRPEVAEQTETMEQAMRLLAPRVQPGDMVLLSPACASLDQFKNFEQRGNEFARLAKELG

Staphylococcus aureus [5] = assay: Antibacterial activity against methicillin resistant Staphylococcus aureus; type: functional; conditions: GC 1131
Staphylococcus aureus [6] = assay: Antibacterial activity against Staphylococcus aureus; type: functional; conditions: GC 4543
[7] = target: T2, UDP-N-acetylmuramate--L-alanine ligase (Staphylococcus aureus, UniProt O31211); assay: Inhibitory activity against MurC in Staphylococcus aureus
T2 sequence (O31211 whole entry): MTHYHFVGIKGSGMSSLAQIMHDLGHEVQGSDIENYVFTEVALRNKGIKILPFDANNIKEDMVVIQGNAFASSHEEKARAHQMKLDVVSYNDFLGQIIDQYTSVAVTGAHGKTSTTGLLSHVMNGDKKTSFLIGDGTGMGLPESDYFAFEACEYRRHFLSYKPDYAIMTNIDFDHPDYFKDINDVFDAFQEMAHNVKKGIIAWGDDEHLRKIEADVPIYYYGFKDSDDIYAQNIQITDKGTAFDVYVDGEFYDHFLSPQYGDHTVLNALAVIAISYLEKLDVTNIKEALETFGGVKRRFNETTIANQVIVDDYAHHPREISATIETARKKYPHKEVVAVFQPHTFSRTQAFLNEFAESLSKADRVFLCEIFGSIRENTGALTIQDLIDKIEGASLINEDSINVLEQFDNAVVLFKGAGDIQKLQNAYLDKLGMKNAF

[8] = target: T3, UDP-N-acetylmuramoylalanine--D-glutamate ligase (Staphylococcus aureus, UniProt P0A091); assay: Inhibitory activity against MurD in Staphylococcus aureus
T3 sequence (P0A091 whole entry): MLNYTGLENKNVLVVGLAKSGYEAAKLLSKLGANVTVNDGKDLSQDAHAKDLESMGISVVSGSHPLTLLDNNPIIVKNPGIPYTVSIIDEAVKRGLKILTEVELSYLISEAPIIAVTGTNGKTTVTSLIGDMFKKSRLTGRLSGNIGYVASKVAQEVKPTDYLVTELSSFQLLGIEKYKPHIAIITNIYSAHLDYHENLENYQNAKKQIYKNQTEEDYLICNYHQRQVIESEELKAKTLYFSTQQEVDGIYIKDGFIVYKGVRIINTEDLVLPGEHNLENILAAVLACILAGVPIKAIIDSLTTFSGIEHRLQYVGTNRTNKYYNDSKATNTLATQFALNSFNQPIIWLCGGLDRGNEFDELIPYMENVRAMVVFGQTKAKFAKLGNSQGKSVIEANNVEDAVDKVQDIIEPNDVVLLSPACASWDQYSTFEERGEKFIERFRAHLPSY

[9] = target: T4, UDP-N-acetylenolpyruvoylglucosamine reductase (Escherichia coli K-12, UniProt P08373); assay: Inhibitory activity against MurB in Escherichia coli
T4 sequence (P08373 whole entry): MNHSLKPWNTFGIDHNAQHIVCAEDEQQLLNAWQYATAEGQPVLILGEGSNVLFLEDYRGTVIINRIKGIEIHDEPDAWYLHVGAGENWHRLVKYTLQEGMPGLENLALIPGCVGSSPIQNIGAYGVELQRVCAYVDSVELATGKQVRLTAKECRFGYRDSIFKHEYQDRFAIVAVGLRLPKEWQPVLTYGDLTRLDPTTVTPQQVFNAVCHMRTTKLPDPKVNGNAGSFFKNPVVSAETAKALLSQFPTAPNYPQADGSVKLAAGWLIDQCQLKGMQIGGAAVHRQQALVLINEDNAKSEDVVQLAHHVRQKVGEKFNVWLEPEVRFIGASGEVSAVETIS

[10] = target: UDP-N-acetylmuramate--L-alanine ligase (Escherichia coli K-12, UniProt P17952); assay: Inhibitory activity against MurC in Escherichia coli
Chain of UDP-N-acetylmuramate--L-alanine ligase (Escherichia coli K-12, UniProt P17952) (P17952 whole entry): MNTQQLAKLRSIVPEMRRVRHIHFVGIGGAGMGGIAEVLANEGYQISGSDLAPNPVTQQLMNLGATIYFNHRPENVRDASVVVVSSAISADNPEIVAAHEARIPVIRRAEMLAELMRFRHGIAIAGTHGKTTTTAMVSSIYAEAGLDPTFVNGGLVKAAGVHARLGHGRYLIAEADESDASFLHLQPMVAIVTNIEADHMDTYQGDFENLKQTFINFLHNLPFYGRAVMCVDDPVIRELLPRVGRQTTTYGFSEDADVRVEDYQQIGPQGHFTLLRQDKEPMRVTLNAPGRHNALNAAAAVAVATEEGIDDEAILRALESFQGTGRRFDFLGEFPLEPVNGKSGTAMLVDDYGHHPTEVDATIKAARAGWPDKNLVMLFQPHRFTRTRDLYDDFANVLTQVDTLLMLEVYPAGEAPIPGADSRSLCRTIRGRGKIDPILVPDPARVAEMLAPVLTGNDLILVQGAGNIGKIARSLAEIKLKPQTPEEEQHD

Chain of UDP-N-acetylglucosamine 1-carboxyvinyltransferase (P0A749 whole entry): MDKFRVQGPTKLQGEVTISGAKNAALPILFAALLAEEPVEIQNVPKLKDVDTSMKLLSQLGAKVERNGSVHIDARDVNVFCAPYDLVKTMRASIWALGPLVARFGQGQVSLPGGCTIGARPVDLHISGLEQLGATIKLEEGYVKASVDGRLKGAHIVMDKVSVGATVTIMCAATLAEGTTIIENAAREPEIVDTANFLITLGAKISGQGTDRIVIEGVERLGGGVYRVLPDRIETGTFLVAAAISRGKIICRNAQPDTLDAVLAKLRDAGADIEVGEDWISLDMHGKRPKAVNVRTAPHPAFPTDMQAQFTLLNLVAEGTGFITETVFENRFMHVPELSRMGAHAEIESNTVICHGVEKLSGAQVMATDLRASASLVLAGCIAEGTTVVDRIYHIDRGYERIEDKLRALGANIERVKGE

Compound	IC50 [1] [µM]	MIC (Enterococcus faecalis [2]) [µg/mL]	MIC (Streptococcus pneumoniae) [µg/mL]	MIC (Enterococcus faecalis [3]) [µg/mL]	IC50 [4] [µM]	MIC (Staphylococcus aureus [5]) [µg/mL]	MIC (Staphylococcus aureus [6]) [µg/mL]	IC50 [7] [µM]	IC50 [8] [µM]	IC50 [9] [µM]	IC50 [10] [µM]
O=C1O/C(=C\c2ccc(Cl)cc2)C(O)=C1c1ccc(-c2ccccc2)cc1	> 66.7	8 (≈ 21.3 µM)	1 (≈ 2.67 µM)	4 (≈ 10.7 µM)	> 66.7	16 (≈ 42.7 µM)	16 (≈ 42.7 µM)				
Cc1ccccc1-c1ccc(/C=C2\OC(O)=C(c3cc(Cl)cc(Cl)c3)C2=O)cc1C	4.57	2 (≈ 4.57 µM)	≤ 0.12	0.5 (≈ 1.14 µM)		0.5 (≈ 1.14 µM)	0.5 (≈ 1.14 µM)	52.6	20.6	2.29	
O=C1O/C(=C\c2cc(C(F)(F)F)ccc2F)C(O)=C1c1ccc(-c2ccccc2)c(F)c1		2 (≈ 4.5 µM)	0.5 (≈ 1.13 µM)	2 (≈ 4.5 µM)		2 (≈ 4.5 µM)	2 (≈ 4.5 µM)				
O=C1O/C(=C(/C(=O)Nc2cccc(C(F)(F)F)c2)c2ccccc2)C(O)=C1c1ccccc1											17.7
O=C1O/C(=C\c2ccc3ccccc3c2)C(O)=C1c1cccc(C(F)(F)F)c1	> 65.4	16 (≈ 41.8 µM)	0.5 (≈ 1.31 µM)	4 (≈ 10.5 µM)	> 65.4	8 (≈ 20.9 µM)	8 (≈ 20.9 µM)				
O=C1O/C(=C\C2CCCCC2)C(O)=C1c1ccc2ccccc2c1		32 (≈ 99.9 µM)	≤ 0.12	8 (≈ 25 µM)		> 128	16 (≈ 49.9 µM)				
COc1ccccc1-c1ccc(/C=C2\OC(O)=C(c3cc(Cl)cc(Cl)c3)C2=O)cc1OC	36.2	8 (≈ 17 µM)	0.5 (≈ 1.07 µM)	8 (≈ 17 µM)	> 53.3	2 (≈ 4.26 µM)	2 (≈ 4.26 µM)			12.8	12.8
O=C1O/C(=C\c2cccc3ccccc23)C(O)=C1c1cccc(C(F)(F)F)c1	> 65.4	16 (≈ 41.8 µM)	0.5 (≈ 1.31 µM)	8 (≈ 20.9 µM)	> 65.4	8 (≈ 20.9 µM)	8 (≈ 20.9 µM)				
O=C1O/C(=C\c2cccc(C(F)(F)F)c2)C(O)=C1c1cccc2ccccc12	> 65.4	> 128	8 (≈ 20.9 µM)	32 (≈ 83.7 µM)	> 65.4	32 (≈ 83.7 µM)	64 (≈ 167 µM)			> 65.4	
O=C1O/C(=C\c2cccc(-c3cccc(Cl)c3)c2)C(O)=C1c1cccc(Cl)c1		8 (≈ 19.5 µM)	1 (≈ 2.44 µM)	4 (≈ 9.77 µM)		> 128	1 (≈ 2.44 µM)				
O=C1O/C(=C\c2cccc(-c3cc(Cl)cc(Cl)c3)c2)C(O)=C1c1cc(Cl)cc(Cl)c1	4.18	1 (≈ 2.09 µM)	0.25 (≈ 0.523 µM)	0.5 (≈ 1.05 µM)		0.25 (≈ 0.523 µM)	0.25 (≈ 0.523 µM)		12.5		
COc1ccc(C2=C(O)O/C(=C\c3cccc(C(F)(F)F)c3)C2=O)cc1	> 69	128 (≈ 353 µM)	2 (≈ 5.52 µM)	64 (≈ 177 µM)	69	1 (≈ 2.76 µM)	128 (≈ 353 µM)			> 69	38.6
O=C1O/C(=C\c2ccccc2-c2ccc(Cl)c(Cl)c2)C(O)=C1c1ccc(Cl)c(Cl)c1	6.27	1 (≈ 2.09 µM)	≤ 0.12	0.5 (≈ 1.05 µM)		0.5 (≈ 1.05 µM)	0.25 (≈ 0.523 µM)	37.6	10.5		
O=C1O/C(=C\c2ccccc2)C(O)=C1c1ccccc1 [PULVINONE]											≤ 30.3
